Assay results taken from PubChem BioAssay (NCI).
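Results reflect a 48-hour exposure of cells in 96-well plates to compound at five concentrations. At the GI50, growth is halved. TGI denotes the concentration required for complete inhibition of growth.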

What was measured:
Test in all cases: NCI-60 cell line screen, 48 h
BT-549 breast = system: BT-549 breast
CCRF-CEM leukemia = system: CCRF-CEM leukemia
HT29 colon = system: HT29 colon
NCI-H23 lung = system: NCI-H23 lung
OVCAR-5 ovarian = system: OVCAR-5 ovarian
RXF 393 renal = system: RXF 393 renal
SK-OV-3 ovarian = system: SK-OV-3 ovarian
SN12C renal = system: SN12C renal
UACC-257 melanoma = system: UACC-257 melanoma
UACC-62 melanoma = system: UACC-62 melanoma
K-562 leukemia = system: K-562 leukemia

SMILES	TGI (BT-549 breast)	TGI (CCRF-CEM leukemia)	TGI (HT29 colon)	TGI (NCI-H23 lung)	TGI (OVCAR-5 ovarian)	TGI (RXF 393 renal)	TGI (SK-OV-3 ovarian)	TGI (SN12C renal)	TGI (UACC-257 melanoma)	TGI (UACC-62 melanoma)	GI50 (HT29 colon)	GI50 (K-562 leukemia)	TGI (K-562 leukemia)	GI50 (NCI-H23 lung)	GI50 (OVCAR-5 ovarian)	GI50 (SK-OV-3 ovarian)	GI50 (SN12C renal)	GI50 (UACC-257 melanoma)	GI50 (UACC-62 melanoma)
COc1ccc(/C=C2\N=C(N3CCCC(CO)C3)NC2=O)cc1 (configuration not stated)	> 100 µM	> 100 µM	> 100 µM	> 100 µM	> 100 µM	> 100 µM	> 100 µM	> 100 µM	> 100 µM	> 100 µM									
FC1(F)ON2CCc3ccccc3C2[C@H]1c1ccccc1 (some centres not stated)		> 100 µM	> 100 µM	> 100 µM	> 100 µM	> 100 µM	> 100 µM	> 100 µM	> 100 µM	> 100 µM	> 100 µM	> 100 µM	> 100 µM	> 100 µM	> 100 µM	> 100 µM	> 100 µM	> 100 µM	> 100 µM
CC(C)(C)C1=C(Br)C(F)(C(C)(C)C)OP1(=O)c1ccccc1 (configuration not stated)			35 µM	37.9 µM	36.6 µM	24.5 µM	32.2 µM	29.5 µM	30.9 µM	29.3 µM			22.9 µM						
CN1CCC2(CC1)SSC1(CCN(C)CC1)S2	> 100 µM	> 100 µM	> 100 µM	> 100 µM	> 100 µM		> 100 µM	> 100 µM	> 100 µM	> 100 µM			> 100 µM						
O=C1C(Cl)=C(Cl)C(=O)C(CCNc2nccs2)=C1Cl		> 100 µM	> 100 µM	59.3 µM	> 100 µM	46.2 µM	> 100 µM	73.2 µM	54.3 µM	63.6 µM			> 100 µM						
C=C1C2CCC3C4(C)CCCC(C)(C(=O)O)C4CCC3(C2)C1OC(=O)/C(C)=C/C (configuration not stated)	> 100 µM	> 100 µM	> 100 µM	> 100 µM	79.5 µM	34.2 µM	70.2 µM	62.6 µM	> 100 µM	62.2 µM									
CC(NC1=NCCO1)c1ccccc1Cl (configuration not stated)		> 100 µM	> 100 µM	> 100 µM	> 100 µM	> 100 µM	> 100 µM	> 100 µM	> 100 µM	> 100 µM			> 100 µM						
c1ccc2c3c(ccc2c1)-c1[nH]ncc1CCO3		> 100 µM	> 100 µM	75.7 µM	> 86.2 µM	> 74.2 µM	> 100 µM	> 80.4 µM	83.6 µM	> 62.9 µM			> 100 µM						
ClCc1nc2ccccc2[nH]1	> 100 µM	> 100 µM	> 100 µM	> 100 µM	> 100 µM	> 100 µM		> 100 µM	> 100 µM	> 100 µM			> 100 µM						
COc1ccc(/[N+]([O-])=C/c2ccc(OC(=S)S)c(OC)c2)cc1	79.7 µM		> 100 µM	> 100 µM	> 100 µM	50.9 µM	> 100 µM	> 100 µM	> 100 µM	> 100 µM			> 100 µM						
CCCn1cc2c(=O)[nH]c(SC)nc2n1		> 100 µM	> 100 µM	> 100 µM	> 100 µM	> 100 µM		> 100 µM	> 100 µM										
CC1CCN(C(C)C)P(=S)(Cc2ccccc2)O1 (configuration not stated)	> 100 µM		> 100 µM	> 100 µM	> 100 µM		> 100 µM		> 100 µM	> 100 µM			> 100 µM						
Cc1ccc2c(c1)nc1n2C(c2c(F)cccc2F)SC1 (configuration not stated)		> 100 µM	> 100 µM	> 100 µM	> 100 µM	96.4 µM	> 100 µM	> 100 µM	> 100 µM				> 100 µM						
COc1ccc(C(=O)/C=C/c2ccc(OCCCCCCCCCCOc3ccc(/C=C/C(=O)c4ccc(OC)cc4)cc3)cc2)cc1		> 100 µM	> 100 µM		> 100 µM	> 100 µM	> 100 µM	> 100 µM	> 100 µM	> 100 µM			> 100 µM						
COC(=O)CCc1ccc(CCC(=O)OC)cc1		> 100 µM	> 100 µM	> 100 µM	> 100 µM	> 100 µM	> 100 µM		> 100 µM				> 100 µM						
Fc1cc(C2=Nn3c(COc4ccccc4Cl)nnc3S/C2=C\c2ccc(Cl)cc2)c(Cl)cc1Cl		> 100 µM	> 100 µM	6.33 µM	> 100 µM	28 µM	> 100 µM		> 100 µM				> 100 µM						
COC(=O)c1ccc(NCc2cc(OC)ccc2OC)cc1	> 100 µM	> 100 µM	> 100 µM	> 100 µM	> 100 µM		> 100 µM		> 100 µM	> 100 µM			> 100 µM						
COc1ccc2c(c1)c1c3c(ccc4ncn2c43)N(CCO)CCN=1		0.305 µM	0.898 µM	0.466 µM	0.715 µM	0.473 µM	2.03 µM	0.519 µM	1.39 µM	0.602 µM			0.228 µM						
COC(=O)C(Cc1c[nH]c2ccccc12)NC(=O)C(Cc1cnc[nH]1)NC(=O)C1CCC(=O)N1C(=O)OCc1ccccc1 (configuration not stated)	> 100 µM	> 100 µM	> 100 µM	> 100 µM	> 100 µM	> 100 µM			> 100 µM	> 100 µM			> 100 µM						
COC(=O)C1=CO[C@@H](C)[C@@H]2Cn3ccc4c5ccccc5nc-4c3C[C@H]12		> 100 µM	> 100 µM	> 100 µM	> 100 µM	> 100 µM	> 100 µM	> 100 µM	> 100 µM	> 100 µM			> 100 µM						
Cc1nc(OCc2ccccc2)c2ncn(CCO)c2n1	> 100 µM	> 100 µM	> 100 µM	> 100 µM	> 100 µM	> 100 µM	> 100 µM	> 100 µM	> 100 µM	> 100 µM									
Nn1c(CCCCCCCCc2nnc(-c3c(O)ccc4ccccc34)n2N)nnc1-c1c(O)ccc2ccccc12	> 100 µM		> 100 µM	> 100 µM	> 100 µM		> 100 µM	> 100 µM	> 100 µM	> 100 µM									
